Laboratory results published in patent US9346809B2 (LEO PHARMA A/S, priority 2009, dated 2016).

Key:
Format in all cases: biochemical
[1] = target: T1, JAK1 (aa 850-1154, catalytic domain, GST-tag) (Homo sapiens, UniProt P23458); assay: JAK kinase assay (HTRF, phosphorylation of TK substrate-biotin), JAK1; details: HTRF assay, ATP at Km (7 μM); read-out: JAK1 kinase inhibitory activity (EC50)
T1 construct: JAK1 (aa 850-1154) and TYK2 (aa 871-1187) are expressed with an N-terminally fused GST-tag; GST (N); purchased Carna Biosciences, Inc; host or cells: baculovirus expression system
T1 sequence (P23458 850-1154): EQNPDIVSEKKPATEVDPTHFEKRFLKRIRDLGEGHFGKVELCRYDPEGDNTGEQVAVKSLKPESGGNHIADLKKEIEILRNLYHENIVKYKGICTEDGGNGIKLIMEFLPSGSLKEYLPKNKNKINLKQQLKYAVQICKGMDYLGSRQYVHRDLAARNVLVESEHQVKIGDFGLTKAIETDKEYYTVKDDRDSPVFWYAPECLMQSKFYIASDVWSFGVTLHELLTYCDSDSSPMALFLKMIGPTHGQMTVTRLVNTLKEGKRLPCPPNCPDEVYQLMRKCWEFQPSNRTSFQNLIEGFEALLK
How it was run: (§1)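 Catalytic-domain kinases phosphorylated 1 μM biotin-TK substrate at ATP Km (JAK1 7 μM, JAK2 4 μM, JAK3 2 μM, TYK2 13 μM) in Hepes pH 7.0 with DTT and MgCl2, for 20-30 min at RT; JAK1 and TYK2 also had 50 nM SEB. Detection was by HTRF (streptavidin-XL665/Cryptate antibody) overnight, giving EC50.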

[2] = target: T2, JAK2 (catalytic domain, His-tag) (Homo sapiens, UniProt O60674); assay: JAK kinase assay (HTRF, phosphorylation of TK substrate-biotin), JAK2; details: HTRF assay, ATP at Km (4 μM); read-out: JAK2 kinase inhibitory activity (EC50)
T2 construct: All four purified enzymes contain only the catalytic domain; His (N); purchased Carna Biosciences, Inc; host or cells: baculovirus expression system
T2 sequence (O60674 849-1124 limits assumed): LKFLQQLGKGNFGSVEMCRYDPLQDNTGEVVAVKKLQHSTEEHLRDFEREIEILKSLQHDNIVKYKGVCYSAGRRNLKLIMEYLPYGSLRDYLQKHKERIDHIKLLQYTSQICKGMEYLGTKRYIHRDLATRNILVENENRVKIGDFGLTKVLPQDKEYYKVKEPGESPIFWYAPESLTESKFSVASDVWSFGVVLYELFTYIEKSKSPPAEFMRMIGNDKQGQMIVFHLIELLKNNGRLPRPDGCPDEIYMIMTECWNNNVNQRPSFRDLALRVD
How it was run: as §1

[3] = target: T3, JAK3 (catalytic domain, His-tag) (Homo sapiens, UniProt P52333); assay: JAK kinase assay (HTRF, phosphorylation of TK substrate-biotin), JAK3; details: HTRF assay, ATP at Km (2 μM); read-out: JAK3 kinase inhibitory activity (EC50)
T3 construct: All four purified enzymes contain only the catalytic domain; His (N); purchased Carna Biosciences, Inc; host or cells: baculovirus expression system
T3 sequence (P52333 822-1111 limits assumed): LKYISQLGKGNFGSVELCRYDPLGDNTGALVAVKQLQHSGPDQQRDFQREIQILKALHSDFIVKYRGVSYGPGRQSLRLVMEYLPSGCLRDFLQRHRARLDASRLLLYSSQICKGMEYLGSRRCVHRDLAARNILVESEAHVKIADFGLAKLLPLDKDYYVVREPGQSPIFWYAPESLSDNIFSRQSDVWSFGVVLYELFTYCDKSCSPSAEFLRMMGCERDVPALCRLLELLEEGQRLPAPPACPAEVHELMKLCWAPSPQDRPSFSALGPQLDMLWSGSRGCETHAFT
How it was run: as §1

[4] = target: T4, TYK2 (aa 871-1187, catalytic domain, GST-tag) (Homo sapiens, UniProt P29597); assay: JAK kinase assay (HTRF, phosphorylation of TK substrate-biotin), TYK2; details: HTRF assay, ATP at Km (13 μM); read-out: TYK2 kinase inhibitory activity (EC50)
T4 construct: JAK1 (aa 850-1154) and TYK2 (aa 871-1187) are expressed with an N-terminally fused GST-tag; GST (N); purchased Carna Biosciences, Inc; host or cells: baculovirus expression system
T4 sequence (P29597 871-1187): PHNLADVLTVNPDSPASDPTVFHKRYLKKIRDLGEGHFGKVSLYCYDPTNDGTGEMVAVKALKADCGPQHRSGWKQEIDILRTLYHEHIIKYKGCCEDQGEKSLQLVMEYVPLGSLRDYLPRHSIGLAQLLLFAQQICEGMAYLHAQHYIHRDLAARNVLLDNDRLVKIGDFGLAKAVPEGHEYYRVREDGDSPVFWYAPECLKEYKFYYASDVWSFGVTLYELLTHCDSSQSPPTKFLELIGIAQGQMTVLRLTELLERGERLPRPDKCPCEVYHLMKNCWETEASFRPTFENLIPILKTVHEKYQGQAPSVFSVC
How it was run: as §1

| SMILES | EC50 [1] [nM] | EC50 [2] [nM] | EC50 [3] [nM] | EC50 [4] [nM] |
| --- | --- | --- | --- | --- |
| S=C(c1cc2c(s1)CCC2)N1CCN(c2ncnc3[nH]ccc23)CC12CC2 [Example 440, (5,6-Dihydro-4H-cyclopenta[b]thiophen-2-yl)-[7-(7H-pyrrolo[2,3-d]Pyrimidin-4-yl)-4,7-diaza-spiro[2.5]oct-4-yl]-methanethione] | < 100 | < 100 | 100 to 500 | 100 to 500 |
| N#Cc1ccc(CC(=S)N2CCN(c3ncnc4[nH]ccc34)CC23CC3)cc1 [Example 441, 4-{2-[7-(7H-Pyrrolo[2,3-d]pyrimidin-4-yl)-4,7-diaza-spiro[2.5]oct-4-yl]-2-thioxo-ethyl}-benzonitrile] | < 100 | < 100 | < 100 | < 100 |
| COCC(=O)N1CCN(c2ncnc3[nH]ccc23)CC12CC2 [Example 443, 2-Methoxy-1-[7-(7H-pyrrolo[2,3-d]pyrimidin-4-yl)-4,7-diaza-spiro[2.5]oct-4-yl]-ethanone] | < 100 | < 100 | > 500 | > 500 |
| CCCCNC(=O)N1CCN(c2ncnc3[nH]ccc23)CC12CC2 [Example 444, 7-(7H-Pyrrolo[2,3-d]pyrimidin-4-yl)-4,7-diaza-spiro[2.5]octane-4-carboxylic acid butylamide] | < 100 | < 100 | 100 to 500 | > 500 |
| COCC(=S)N1CCN(c2ncnc3[nH]ccc23)CC12CC2 [Example 447, 2-Methoxy-1-[7-(7H-pyrrolo[2,3-d]pyrimidin-4-yl)-4,7-diaza-spiro[2.5]oct-4-yl]-ethanethione] | < 100 | < 100 | 100 to 500 | 100 to 500 |
| S=C(COc1ccccc1)N1CCN(c2ncnc3[nH]ccc23)CC12CC2 [Example 448, 2-Phenoxy-1-[7-(7H-pyrrolo[2,3-d]pyrimidin-4-yl)-4,7-diaza-spiro[2.5]oct-4-yl]-ethanethione] | < 100 | < 100 | < 100 | 100 to 500 |
| CC(C)(C)[S+]([O-])N1CCN(c2ncnc3[nH]ccc23)CC12CC2 (stereo not drawn) [Example 449, 4-[4-(2-Methyl-propane-2-sulfinyl)-4,7-diaza-spiro[2.5]oct-7-yl]-7H-pyrrolo[2,3-d]pyrimidine] | > 500 | 100 to 500 | > 500 | > 500 |
| O=C(OC1CCCC1)N1CCN(c2ncnc3[nH]ccc23)CC12CC2 [Example 450, 7-(7H-Pyrrolo[2,3-d]pyrimidin-4-yl)-4,7-diaza-spiro[2.5]octane-4-carboxylic acid cyclopentyl ester] | < 100 | < 100 | < 100 | < 100 |
| CN(CCC#N)S(=O)(=O)N1CCN(c2ncnc3[nH]ccc23)CC12CC2 [Example 458, 7-(7H-Pyrrolo[2,3-d]pyrimidin-4-yl)-4,7-diaza-spiro[2.5]octane-4-sulfonic acid (2-cyano-ethyl)-methyl-amide] | < 100 | < 100 | < 100 | < 100 |
| CCN(CC)S(=O)(=O)N1CCN(c2ncnc3[nH]ccc23)CC12CC2 [Example 459, 7-(7H-Pyrrolo[2,3-d]pyrimidin-4-yl)-4,7-diaza-spiro[2.5]octane-4-sulfonic acid diethylamide] | < 100 | < 100 | 100 to 500 | 100 to 500 |
| CN(C1CCCCC1)S(=O)(=O)N1CCN(c2ncnc3[nH]ccc23)CC12CC2 [Example 460, 7-(7H-Pyrrolo[2,3-d]pyrimidin-4-yl)-4,7-diaza-spiro[2.5]octane-4-sulfonic acid cyclohexyl-methyl-amide] | < 100 | < 100 | 100 to 500 | 100 to 500 |

Other lines, results leading:

| EC50 [1] [nM] | EC50 [2] [nM] | EC50 [3] [nM] | EC50 [4] [nM] | SMILES |
| --- | --- | --- | --- | --- |
| < 100 | < 100 | < 100 | 100 to 500 | O=C(COc1ccccc1)N1CCN(c2ncnc3[nH]ccc23)CC12CC2 [Example 442, 2-Phenoxy-1-[7-(7H-pyrrolo[2,3-d]pyrimidin-4-yl)-4,7-diaza-spiro[2.5]oct-4-yl]-ethanone] |
| < 100 | < 100 | 100 to 500 | > 500 | O=C(NCCc1ccccc1)N1CCN(c2ncnc3[nH]ccc23)CC12CC2 [Example 445, 7-(7H-Pyrrolo[2,3-d]pyrimidin-4-yl)-4,7-diaza-spiro[2.5]octane-4-carboxylic acid phenethyl-amide] |
| < 100 | < 100 | 100 to 500 | > 500 | O=C(Oc1ccc(Cl)cc1)N1CCN(c2ncnc3[nH]ccc23)CC12CC2 [Example 446, 7-(7H-Pyrrolo[2,3-d]pyrimidin-4-yl)-4,7-diaza-spiro[2.5]octane-4-carboxylic acid 4-chloro-phenyl ester] |
| < 100 | < 100 | 100 to 500 | > 500 | O=C(CNc1ccccc1)N1CCN(c2ncnc3[nH]ccc23)CC12CC2 [Example 451, 2-Phenylamino-1-[7-(7H-pyrrolo[2,3-d]pyrimidin-4-yl)-4,7-diaza-spiro[2.5]oct-4-yl]-ethanone] |
| < 100 | < 100 | < 100 | > 500 | NS(=O)(=O)c1ccc(OCCC(=O)N2CCN(c3ncnc4[nH]ccc34)CC23CC3)cc1 [Example 452, 4-{3-Oxo-3-[7-(7H-pyrrolo[2,3-d]pyrimidin-4-yl)-4,7-diaza-spiro[2.5]oct-4-yl]-propoxy}-benzenesulfonamide] |
| < 100 | < 100 | 100 to 500 | > 500 | NS(=O)(=O)c1ccc(NCCC(=O)N2CCN(c3ncnc4[nH]ccc34)CC23CC3)cc1 [Example 453, 4-{3-Oxo-3-[7-(7H-pyrrolo[2,3-d]pyrimidin-4-yl)-4,7-diaza-spiro[2.5]oct-4-yl]-propylamino}-benzenesulfonamide] |
| < 100 | < 100 | 100 to 500 | 100 to 500 | NS(=O)(=O)c1ccc(NCC(=O)N2CCN(c3ncnc4[nH]ccc34)CC23CC3)cc1 [Example 454, 4-{2-Oxo-2-[7-(7H-pyrrolo[2,3-d]pyrimidin-4-yl)-4,7-diaza-spiro[2.5]oct-4-yl]-ethylamino}-benzenesulfonamide] |
| < 100 | < 100 | < 100 | 100 to 500 | CSCCC(=O)N1CCN(c2ncnc3[nH]ccc23)CC12CC2 [Example 455, 3-Methylsulfanyl-1-[7-(7H-pyrrolo[2,3-d]pyrimidin-4-yl)-4,7-diaza-spiro[2.5]oct-4-yl]-propan-1-one] |
| 100 to 500 | 100 to 500 | 100 to 500 | > 500 | COCCC(=O)N1CCN(c2ncnc3[nH]ccc23)CC12CC2 [Example 456, 3-Methoxy-1-[7-(7H-pyrrolo[2,3-d]pyrimidin-4-yl)-4,7-diaza-spiro[2.5]oct-4-yl]-propan-1-one] |
| > 500 | > 500 | > 500 | > 500 | CN(C)CCC(=O)N1CCN(c2ncnc3[nH]ccc23)CC12CC2 [Example 457, 3-Dimethylamino-1-[7-(7H-pyrrolo[2,3-d]pyrimidin-4-yl)-4,7-diaza-spiro[2.5]oct-4-yl]-propan-1-one] |
